A short description of series [1]: Human microsome stability assay. The series is classed as in vitro ADME. Particulars: human liver microsomes, 1 μM test compound, 0.5 mg/mL microsomal protein, 37° C., pH 7.4, 0-30 minutes. An outline of the steps: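 Compound (1 μM) incubated at 37 °C with human liver microsomes (0.5 mg/mL protein) in 100 mM potassium phosphate, pH 7.4, after 10 min preincubation; started with NADPH regenerating system. Sampled at 0–30 min, quenched with cold ACN; remaining parent quantified by LC-MS/MS, with no-NADPH controls.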
(In general: Liver microsomes are a subcellular fraction often used to study metabolism.)

Series [2] relates to HBeAg (surrogate marker for cccDNA) in HepDES19 cells. Nature of the series: Engineered HepDES19 primary screen assay (HBeAg ELISA). It is filed as cell-based, HBV. The following applies: Hepatitis B virus, HepDES19, 120 h, read-out: IC50 (HBeAg level, HepDES19 primary screen assay), HepDES19 cells, 5 days compound incubation, HBeAg ELISA. An outline of the steps: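 HepDES19 cells were induced by Tet withdrawal for 8 days, then treated with half-log compound dilutions (1% DMSO final) for 5 days at 37 °C. HBeAg was measured by ELISA as the cccDNA surrogate, viability by CCK-8, and IC50 from a 4-parameter logistic fit.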
A general note: An ELISA detects its analyte on a solid surface through an enzyme-linked reagent.

Take `COc1ccc(OCCOC2CC(C(=O)O)C2)c(-c2cc(=O)c3cccc(Cl)c3o2)c1` (centres unmarked) [Example C060, 3-[2-[2-(8-chloro-4-oxo-chromen-2-yl)-4-methoxy-phenoxy]ethoxy]cyclobutanecarboxylic acid]: the “Clearance of Human microsome” value in series [1] was 6.15 mL/min/kg. Further, in series [2], the IC50 was determined as 9.81 µM.

Regarding `O=c1cc(-c2ccc(N3CCCC3)cc2OCCO[C@H]2C[C@@H](C(=O)O)C2)oc2c(Cl)cccc12` [Example C068, cis-3-[2-[2-(8-chloro-4-oxo-chromen-2-yl)-5-pyrrolidin-1-yl-phenoxy]ethoxy]cyclobutanecarboxylic acid], in series [1], the “Clearance of Human microsome” value amounted to 6.15 mL/min/kg. Also, the IC50 in series [2] came out at 4.74 µM.

As to `O=c1cc(-c2cccc(Br)c2OCCO[C@H]2C[C@@H](C(=O)O)C2)oc2c(Cl)cc(F)cc12` [Example C070, Cis-3-[2-[2-bromo-6-(8-chloro-6-fluoro-4-oxo-chromen-2-yl)phenoxy]ethoxy]cyclobutanecarboxylic acid], in series [1], the “Clearance of Human microsome” value was 9.42 mL/min/kg. Also, the IC50 in series [2] is 13.1 µM.

Regarding `O=c1cc(-c2c(F)cc(Br)cc2OCCO[C@H]2C[C@@H](C(=O)O)C2)oc2c(Cl)cccc12` [Example C071, Cis-3-[2-[5-bromo-2-(8-chloro-4-oxo-chromen-2-yl)-3-fluoro-phenoxy]ethoxy]cyclobutanecarboxylic acid], in series [1], the “Clearance of Human microsome” value amounted to 6.15 mL/min/kg. In series [2], the IC50 was 10.8 µM.

Regarding `COc1cc(OCCO[C@H]2C[C@@H](C(=O)O)C2)c(-c2cc(=O)c3cccc(Cl)c3o2)cc1OC` [Example C072, Cis-3-[2-[2-(8-chloro-4-oxo-chromen-2-yl)-4,5-dimethoxy-phenoxy]ethoxy]cyclobutanecarboxylic acid], the “Clearance of Human microsome” value in series [1] was 6.15 mL/min/kg. In series [2], the IC50 was determined as 6.31 µM.

For `O=c1cc(-c2cc3c(cc2OCCO[C@H]2C[C@@H](C(=O)O)C2)OCCO3)oc2c(Cl)cccc12` [Example C074, Cis-3-[2-[[7-(8-chloro-4-oxo-chromen-2-yl)-2,3-dihydro-1,4-benzodioxin-6-yl]oxy]ethoxy]cyclobutanecarboxylic acid], in series [1], the “Clearance of Human microsome” value amounted to 6.15 mL/min/kg. Besides, the IC50 in series [2] worked out at 7.28 µM.

Regarding `Cc1cc(OCCO[C@H]2C[C@@H](C(=O)O)C2)c(-c2cc(=O)c3cccc(Cl)c3o2)cc1C(F)F` [Example C075, Cis-3-[2-[2-(8-chloro-4-oxo-chromen-2-yl)-4-(difluoromethyl)-5-methyl-phenoxy]ethoxy]cyclobutanecarboxylic acid], the “Clearance of Human microsome” value in series [1] is on record as 6.15 mL/min/kg. In addition, the IC50 in series [2] came out at 10.9 µM.

In the case of `COc1cc(-c2cc(=O)c3cccc(Cl)c3o2)c(OCCO[C@H]2C[C@@H](C(=O)O)C2)cc1O` [Example C076, Cis-3-[2-[2-(8-chloro-4-oxo-chromen-2-yl)-5-hydroxy-4-methoxy-phenoxy]ethoxy]cyclobutanecarboxylic acid], in series [1], the “Clearance of Human microsome” value came out at 6.15 mL/min/kg. In series [2], the IC50 worked out at 0.502 µM.

On to `COc1cc(-c2cc(=O)c3cccc(Cl)c3o2)c(OCCO[C@H]2C[C@@H](C(=O)O)C2)cc1OCC1CC1` [Example C079, Cis-3-[2-[2-(8-chloro-4-oxo-chromen-2-yl)-5-(cyclopropylmethoxy)-4-methoxy-phenoxy]ethoxy]cyclobutanecarboxylic acid], for which the “Clearance of Human microsome” value in series [1] is given as 6.15 mL/min/kg. The IC50 in series [2] came to 5.5 µM.

As to `COc1cc(OCCO[C@H]2C[C@@H](C(=O)O)C2)c(-c2cc(=O)c3cccc(Cl)c3o2)cc1O` [Example C083, cis-3-[2-[2-(8-chloro-4-oxo-chromen-2-yl)-4-hydroxy-5-methoxy-phenoxy]ethoxy]cyclobutanecarboxylic acid], the “Clearance of Human microsome” value in series [1] was found to be 6.15 mL/min/kg. Also, the IC50 in series [2] worked out at 4.59 µM.

On to `O=c1cc(-c2cc(OC(F)F)c(OC(F)F)cc2OCCO[C@H]2C[C@@H](C(=O)O)C2)oc2c(Cl)cccc12` [Example C087, cis-3-[2-[2-(8-chloro-4-oxo-chromen-2-yl)-4,5-bis(difluoromethoxy)phenoxy]ethoxy]cyclobutanecarboxylic acid], for which the “Clearance of Human microsome” value in series [1] is recorded as 6.15 mL/min/kg. The IC50 in series [2] turned out to be 6.35 µM.

For `CCOc1cc(OCCO[C@H]2C[C@@H](C(=O)O)C2)c(-c2cc(=O)c3cccc(Cl)c3o2)cc1OCC` [Example C088, Cis-3-[2-[2-(8-chloro-4-oxo-chromen-2-yl)-4,5-diethoxy-phenoxy]ethoxy]cyclobutanecarboxylic acid], in series [1], the “Clearance of Human microsome” value was 6.15 mL/min/kg. The IC50 in series [2] was found to be 10.3 µM.

As to `COc1cc(OCCO[C@H]2C[C@@H](C(=O)O)C2)c(-c2cc(=O)c3cccc(Cl)c3o2)cc1OC(F)(F)F` [Example C089, Cis-3-[2-[2-(8-chloro-4-oxo-chromen-2-yl)-5-methoxy-4-(trifluoromethoxy)phenoxy]ethoxy]cyclobutanecarboxylic acid], in series [1], the “Clearance of Human microsome” value came to 6.15 mL/min/kg. Further, the IC50 in series [2] was determined as 3.78 µM.

For the molecule `CC1(C)C(=O)Nc2cc(-c3cc(=O)c4cccc(Cl)c4o3)c(OCCO[C@H]3C[C@@H](C(=O)O)C3)cc21` [Example C092, cis-3-[2-[6-(8-chloro-4-oxo-chromen-2-yl)-3,3-dimethyl-2-oxo-indolin-5-yl]oxyethoxy]cyclobutanecarboxylic acid], in series [1], the “Clearance of Human microsome” value turned out to be 6.15 mL/min/kg. Moreover, the IC50 in series [2] worked out at 11.2 µM.

For `CN1C(=O)C(C)(C)c2cc(OCCO[C@H]3C[C@@H](C(=O)O)C3)c(-c3cc(=O)c4cccc(Cl)c4o3)cc21` [Example C093, Cis-3-[2-[6-(8-chloro-4-oxo-chromen-2-yl)-1,3,3-trimethyl-2-oxo-indolin-5-yl]oxyethoxy]cyclobutanecarboxylic acid], the “Clearance of Human microsome” value in series [1] stood at 6.15 mL/min/kg. The IC50 in series [2] was 7.79 µM.

Regarding `O=c1cc(-c2ccccc2OCCO[C@H]2C[C@@H](C(=O)O)C2)oc2c(Cl)ccc(C(F)(F)F)c12` [Example C094, cis-3-[2-[2-[8-chloro-4-oxo-5-(trifluoromethyl)chromen-2-yl]phenoxy]ethoxy]cyclobutanecarboxylic acid], the “Clearance of Human microsome” value in series [1] is reported as 6.15 mL/min/kg. Moreover, the IC50 in series [2] turned out to be 0.04 µM.

In the case of `CCOc1ccc(-c2cc(=O)c3c(C(F)(F)F)ccc(Cl)c3o2)c(OCCO[C@H]2C[C@@H](C(=O)O)C2)c1` [Example C095, cis-3-[2-[2-[8-chloro-4-oxo-5-(trifluoromethyl)chromen-2-yl]-5-ethoxy-phenoxy]ethoxy]cyclobutanecarboxylic acid], the “Clearance of Human microsome” value in series [1] turned out to be 9.62 mL/min/kg. Moreover, the IC50 in series [2] came out at 3.29 µM.

Turning to `COc1cc(OCCO[C@H]2C[C@@H](C(=O)O)C2)c(-c2cc(=O)c3c(O)ccc(Cl)c3o2)cc1OC` [Example C098, cis-3-[2-[2-(8-chloro-5-hydroxy-4-oxo-chromen-2-yl)-4,5-dimethoxy-phenoxy]ethoxy]cyclobutanecarboxylic acid], in series [1], the “Clearance of Human microsome” value is given as 6.15 mL/min/kg. The IC50 in series [2] stood at 8.56 µM.

In the case of `O=c1cc(-c2ccc(C(F)(F)F)cc2OCCO[C@H]2C[C@@H](C(=O)O)C2)oc2c(Cl)ccc(O)c12` [Example C099, cis-3-[2-[2-(8-chloro-5-hydroxy-4-oxo-chromen-2-yl)-5-(trifluoromethyl)phenoxy]ethoxy]cyclobutanecarboxylic acid], the “Clearance of Human microsome” value in series [1] was found to be 7.11 mL/min/kg. The IC50 in series [2] is 15.7 µM.

Regarding `O=C(O)COCCCOc1cc(C(F)(F)F)ccc1-c1cc(=O)c2c(O)ccc(Cl)c2o1` [Example C100, 2-[3-[2-(8-chloro-5-hydroxy-4-oxo-chromen-2-yl)-5-(trifluoromethyl)phenoxy]propoxy]acetic acid], the “Clearance of Human microsome” value in series [1] stood at 6.15 mL/min/kg. Further, the IC50 in series [2] worked out at 0.691 µM.

For the molecule `COc1c(-c2ccc(Br)cc2OCCO[C@H]2C[C@@H](C(=O)O)C2)oc2c(Cl)cccc2c1=O` [Example C101, Cis-3-[2-[5-bromo-2-(8-chloro-3-methoxy-4-oxo-chromen-2-yl)phenoxy]ethoxy]cyclobutanecarboxylic acid], the “Clearance of Human microsome” value in series [1] amounted to 6.15 mL/min/kg. For the same molecule, the IC50 in series [2] came out at 2.38 µM.

As to `O=c1cc(-c2cc3c(cc2OCCO[C@H]2C[C@@H](C(=O)O)C2)OC(F)(F)O3)oc2c(Cl)cccc12` [Example C102, Cis-3-[2-[[6-(8-chloro-4-oxo-chromen-2-yl)-2,2-difluoro-1,3-benzodioxol-5-yl]oxy]ethoxy]cyclobutanecarboxylic acid], the “Clearance of Human microsome” value in series [1] is recorded as 7.11 mL/min/kg. Further, the IC50 in series [2] turned out to be 7 µM.

On to `O=C(O)C1CCC(OCCCOc2cc(C(F)(F)F)ccc2-c2cc(=O)c3cccc(Cl)c3o2)C1` (centres unmarked) [Example C104, 3-[3-[2-(8-chloro-4-oxo-chromen-2-yl)-5-(trifluoromethyl)phenoxy]propoxy]cyclopentanecarboxylic acid], for which, in series [1], the “Clearance of Human microsome” value was 6.15 mL/min/kg. The IC50 in series [2] was 4.46 µM.

With `O=C(O)C1CCC(OCCCOc2cc(Br)ccc2-c2cc(=O)c3cccc(Cl)c3o2)C1` (centres unmarked) [Example C105, 3-[3-[5-bromo-2-(8-chloro-4-oxo-chromen-2-yl)phenoxy]propoxy]cyclopentanecarboxylic acid], the “Clearance of Human microsome” value in series [1] is 6.15 mL/min/kg. The IC50 in series [2] was 1.74 µM.

With `CC(C)(COc1cc(Br)ccc1-c1cc(=O)c2cccc(Cl)c2o1)CO[C@H]1C[C@@H](C(=O)O)C1` [Example C110-A, cis-3-[3-[5-bromo-2-(8-chloro-4-oxo-chromen-2-yl)phenoxy]-2,2-dimethyl-propoxy]cyclobutanecarboxylic acid], the “Clearance of Human microsome” value in series [1] came out at 6.15 mL/min/kg. The IC50 in series [2] was 0.433 µM.

What is called IC50 is the concentration that gives 50% inhibition.

The values are drawn from patent US11708344B2, “Flavone derivatives for the treatment and prophylaxis of hepatitis B virus disease” (Hoffmann-La Roche Inc., priority 2018, dated 2023).
